Measured values published in the supplement of paper PMC13207355.

Key:
Conditions in all cases: exposure time: 72 h
E13 [1] = patient-derived glioblastoma stem cells of classical subtype; assay: surviving fraction (nuclei count normalised to DMSO); higher = more cells surviving (less toxic)
E21 [2] = patient-derived glioblastoma stem cells of mesenchymal subtype; assay: as above
E28 [3] = patient-derived glioblastoma stem cells of classical subtype; assay: as above
E31 [4] = patient-derived glioblastoma stem cells of proneural subtype; assay: as above
E34 [5] = patient-derived glioblastoma stem cells of proneural subtype; assay: as above
E57 [6] = patient-derived glioblastoma stem cells of mesenchymal subtype; assay: as above
FT3469 [7] = normal neural stem cell line; assay: as above
E13 [8] = assay: phenotypic distance (Euclidean, principal components) from DMSO controls (arbitrary units); higher = stronger morphological change
E21 [9] = assay: as above
E28 [10] = assay: as above
E31 [11] = assay: as above
E34 [12] = assay: as above
E57 [13] = assay: as above
FT3469 [14] = assay: as above
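For phenotypic distance (Euclidean, principal components) from DMSO controls in this document: cell Painting imaging in 384-well plates, CellProfiler features reduced to at least 20 principal components, Euclidean distance versus same-plate DMSO vehicle wells (0.1% v/v), median over six images per well.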
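For surviving fraction (nuclei count normalised to DMSO) in this document: nuclei counted by high-content imaging of Hoechst-stained cells in laminin-coated 384-well plates, relative to 0.1% DMSO vehicle wells, with staurosporine as cell-death control.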

C[C@H]1O[C@@H](O[C@H]2[C@@H](O)C[C@H](O[C@H]3[C@@H](O)C[C@H](O[C@H]4CC[C@@]5(C)[C@H](CC[C@@H]6[C@@H]5C[C@@H](O)[C@]5(C)[C@@H](C7=CC(=O)OC7)CC[C@]65O)C4)O[C@@H]3C)O[C@@H]2C)C[C@H](O)[C@@H]1O [Digoxin]
Conditions | phenotypic distance | surviving fraction
E13 [1], 4.1 nM | – | 0.795
E13 [1], 12.3 nM | – | 0.448
E13 [1], 37 nM | – | 0.349
E13 [1], 111.1 nM | – | 0.348
E13 [1], 333.3 nM | – | 0.272
E13 [1], 1000 nM | – | 0.306
E13 [1], 3000 nM | – | 0.266
E13 [8], 4.1 nM | 2.96 | –
E13 [8], 12.3 nM | 3.64 | –
E13 [8], 37 nM | 5.02 | –
E13 [8], 111.1 nM | 5.57 | –
E13 [8], 333.3 nM | 6.42 | –
E13 [8], 1000 nM | 6.06 | –
E13 [8], 3000 nM | 6.15 | –
E21 [2], 4.1 nM | – | 0.854
E21 [2], 12.3 nM | – | 0.676
E21 [2], 37 nM | – | 0.497
E21 [2], 111.1 nM | – | 0.368
E21 [2], 333.3 nM | – | 0.269
E21 [2], 1000 nM | – | 0.266
E21 [2], 3000 nM | – | 0.218
E21 [9], 4.1 nM | 2.11 | –
E21 [9], 12.3 nM | 3.25 | –
E21 [9], 37 nM | 3.77 | –
E21 [9], 111.1 nM | 6.27 | –
E21 [9], 333.3 nM | 6.66 | –
E21 [9], 1000 nM | 5.99 | –
E21 [9], 3000 nM | 6.15 | –
E28 [3], 4.1 nM | – | 0.839
E28 [3], 12.3 nM | – | 0.85
E28 [3], 37 nM | – | 0.696
E28 [3], 111.1 nM | – | 0.628
E28 [3], 333.3 nM | – | 0.491
E28 [3], 1000 nM | – | 0.452
E28 [3], 3000 nM | – | 0.332
E28 [10], 4.1 nM | 1 | –
E28 [10], 12.3 nM | 1.47 | –
E28 [10], 37 nM | 2.1 | –
E28 [10], 111.1 nM | 2.57 | –
E28 [10], 333.3 nM | 2.97 | –
E28 [10], 1000 nM | 3.74 | –
E28 [10], 3000 nM | 2.92 | –
E31 [4], 4.1 nM | – | 0.87
E31 [4], 12.3 nM | – | 0.721
E31 [4], 37 nM | – | 0.47
E31 [4], 111.1 nM | – | 0.403
E31 [4], 333.3 nM | – | 0.36
E31 [4], 1000 nM | – | 0.356
E31 [4], 3000 nM | – | 0.252
E31 [11], 4.1 nM | 2.21 | –
E31 [11], 12.3 nM | 3.02 | –
E31 [11], 37 nM | 4.38 | –
E31 [11], 111.1 nM | 5.51 | –
E31 [11], 333.3 nM | 5.08 | –
E31 [11], 1000 nM | 4.94 | –
E31 [11], 3000 nM | 4.77 | –
E34 [5], 4.1 nM | – | 0.979
E34 [5], 12.3 nM | – | 0.745
E34 [5], 37 nM | – | 0.632
E34 [5], 111.1 nM | – | 0.539
E34 [5], 333.3 nM | – | 0.466
E34 [5], 1000 nM | – | 0.394
E34 [5], 3000 nM | – | 0.293
E34 [12], 4.1 nM | 1.18 | –
E34 [12], 12.3 nM | 3.09 | –
E34 [12], 37 nM | 4.76 | –
E34 [12], 111.1 nM | 5.12 | –
E34 [12], 333.3 nM | 3.77 | –
E34 [12], 1000 nM | 3.7 | –
E34 [12], 3000 nM | 5.72 | –
E57 [6], 4.1 nM | – | 1
E57 [6], 12.3 nM | – | 0.74
E57 [6], 37 nM | – | 0.392
E57 [6], 111.1 nM | – | 0.27
E57 [6], 333.3 nM | – | 0.207
E57 [6], 1000 nM | – | 0.166
E57 [6], 3000 nM | – | 0.112
E57 [13], 4.1 nM | 1.42 | –
E57 [13], 12.3 nM | 3.76 | –
E57 [13], 37 nM | 5.52 | –
E57 [13], 111.1 nM | 5.37 | –
E57 [13], 333.3 nM | 6.22 | –
E57 [13], 1000 nM | 6.34 | –
E57 [13], 3000 nM | 6.45 | –
FT3469 [7], 4.1 nM | – | 0.79
FT3469 [7], 12.3 nM | – | 0.652
FT3469 [7], 37 nM | – | 0.628
FT3469 [7], 111.1 nM | – | 0.686
FT3469 [7], 333.3 nM | – | 0.684
FT3469 [7], 1000 nM | – | 0.577
FT3469 [7], 3000 nM | – | 0.566
FT3469 [14], 4.1 nM | 2.61 | –
FT3469 [14], 12.3 nM | 3.2 | –
FT3469 [14], 37 nM | 4.1 | –
FT3469 [14], 111.1 nM | 3.74 | –
FT3469 [14], 333.3 nM | 3.18 | –
FT3469 [14], 1000 nM | 4.16 | –
FT3469 [14], 3000 nM | 3.8 | –
